One assay concerns the target Carbonic anhydrase 9 (Homo sapiens, UniProt Q16790).
A further assay has as its system MCF7. Briefly: cells. The settings on record: Homo sapiens, MCF7, 24 h.

Description for Carbonic anhydrase 9: Inhibition of human recombinant CA9 preincubated for 15 mins prior to testing by stopped flow CO2 hydrase assay
Description for MCF7: Cytotoxicity against human MCF7 cells assessed as cell survivability after 24 hrs by crystal violet staining based microscopic analysis

Turning to `NS(=O)(=O)c1ccc(Nc2csc(Nc3ccc(S(N)(=O)=O)cc3)n2)cc1`, the Ki – broadly, the equilibrium dissociation constant of an inhibitor or competing ligand from its target – at Carbonic anhydrase 9 turned out to be 7.3 nM. In the assay with MCF7, the IC50 – broadly, the midpoint of a concentration-inhibition curve – stood at 21.5 µM. As for `NS(=O)(=O)c1ccc(Nc2nc(NN3C(=O)/C(=C/c4ccc(Cl)cc4)N=C3c3ccccc3)cs2)cc1`, affinity on Carbonic anhydrase 9 was put at a Ki of 29.2 nM. Besides, the IC50 with MCF7 was over 150 µM.

The compound `CN(C)c1ccc(-c2nc(NNc3csc(Nc4ccc(S(N)(=O)=O)cc4)n3)[nH]c(=O)c2C#N)cc1` gave an IC50 in the assay with MCF7 of 89.7 µM. In the assay with MCF7, `NS(=O)(=O)c1ccc(Nc2nc(NN3C(=O)/C(=C/c4ccccc4)N=C3c3ccc(Cl)cc3)cs2)cc1` yielded an IC50 of over 150 µM. In the case of `NC(N)=NS(=O)(=O)c1ccc(N/N=C2\SC(Nc3ccc(S(N)(=O)=O)cc3)=NC2=O)cc1`, the Ki on Carbonic anhydrase 9 turned out to be 8.5 nM. Besides, the IC50 in the assay on MCF7 amounted to 11.9 µM. `CN(C)c1ccc(/C=C2\N=C(c3ccc(Cl)cc3)N(Nc3csc(Nc4ccc(S(N)(=O)=O)cc4)n3)C2=O)cc1`: in the assay on MCF7, the IC50 was determined as 44.5 µM. Same read-out and setting: in the case of `N#Cc1c(-c2ccc(Cl)cc2)nc(NNc2csc(Nc3ccc(S(N)(=O)=O)cc3)n2)[nH]c1=O` it was over 150 µM. At Carbonic anhydrase 9, `NS(=O)(=O)c1ccc(NC2=NC(=O)/C(=N/Nc3ccc(C(=O)O)cc3)S2)cc1` registered a Ki of 6.4 nM. The same compound yielded an IC50 in the assay with MCF7 of 5.45 µM. For the compound `NS(=O)(=O)c1ccc(Nc2nc(N3CCCCC3)cs2)cc1`, the affinity at Carbonic anhydrase 9, expressed as Ki, was 6.7 nM. The compound also had an IC50 with MCF7 of 24.3 µM. Consider `NS(=O)(=O)c1ccc(Nc2nc(Nc3ccc(C(=O)O)cc3)cs2)cc1`, for which the Ki on Carbonic anhydrase 9 amounted to 8.8 nM. Besides, in the assay with MCF7, the IC50 is 22.1 µM.

In the case of `CN(C)c1ccc(/C=C2\N=C(c3ccccc3)N(Nc3csc(Nc4ccc(S(N)(=O)=O)cc4)n3)C2=O)cc1`, in the assay with MCF7, half-maximal inhibition (IC50) required 38.9 µM. Still for that read-out and setting: in the case of `N#Cc1c(-c2ccccc2)nc(Sc2csc(Nc3ccc(S(N)(=O)=O)cc3)n2)[nH]c1=O` it was over 150 µM; in that of `N#Cc1c(-c2ccc(Cl)cc2)nc(Sc2csc(Nc3ccc(S(N)(=O)=O)cc3)n2)[nH]c1=O`, 86.6 µM; in that of `NS(=O)(=O)c1ccc(Nc2nc(NN3C(=O)/C(=C/c4ccc(Cl)cc4)N=C3c3ccc(Cl)cc3)cs2)cc1`, 136 µM. With `NS(=O)(=O)c1ccc(Nc2nc(NN3C(=O)/C(=C/c4ccccc4)N=C3c3ccccc3)cs2)cc1`, the midpoint of inhibition in the assay on MCF7, the IC50, lay at 45.9 µM. Compound `O=c1[nH]cc(F)c(=O)[nH]1` [FLUOROURACIL] showed an IC50 in the assay with MCF7 of 11.1 µM. For the compound `NS(=O)(=O)c1ccc(NC2=NC(=O)/C(=N/Nc3ccc(Cl)cc3)S2)cc1`, the IC50 in the assay with MCF7 stood at 10.7 µM. In the assay with MCF7, `CN(C)c1ccc(-c2nc(Sc3csc(Nc4ccc(S(N)(=O)=O)cc4)n3)[nH]c(=O)c2C#N)cc1` gave an IC50 of 85 µM. `N#Cc1c(-c2ccccc2)nc(NNc2csc(Nc3ccc(S(N)(=O)=O)cc3)n2)[nH]c1=O` showed a Ki on Carbonic anhydrase 9 of 6.5 nM. In the assay with MCF7, the half-inhibitory concentration (IC50) is over 150 µM. The matching figures for `NS(=O)(=O)c1ccc(N/N=C2\SC(Nc3ccc(S(N)(=O)=O)cc3)=NC2=O)cc1`: 5.8 nM and 2.79 µM.

`NS(=O)(=O)c1ccc(Nc2nc(Nc3ccc(F)cc3)cs2)cc1` gave a Ki at Carbonic anhydrase 9 of 5.6 nM. Further, inhibition with MCF7 was half-maximal at 12 µM (IC50).

Source of the values: ChEMBL document CHEMBL3808361, “Synthesis of 4-(thiazol-2-ylamino)-benzenesulfonamides with carbonic anhydrase I, II and IX inhibitory activity and cytotoxic effects against breast cancer cell lines” (Bioorg Med Chem, 2016).
